According to patent US20240158446A1, “CYCLIC COMPOUND HAVING SELECTIVE INHIBITORY ACTION ON KRAS OVER HRAS AND NRAS” (CHUGAI SEIYAKU KABUSHIKI KAISHA, priority 2021, published 2024):
Where a SMILES comes first, the peptide text is derived from it. Bridges are numbered along the chain shown (N, C = ends). [ ]: non-standard residue; d: D form. The star is where a group is joined. hPhe(3-Cl-4-CF3) = N[C@@H](CCc1ccc(C(F)(F)F)c(Cl)c1)C(=O)O; NPrPhe(4-CF3) = CCCN[C@@H](Cc1ccc(C(F)(F)F)cc1)C(=O)O; NMeGly(cPent) = CN[C@H](C(=O)O)C1CCCC1; Pro(4,4-Me2) = CC1(C)CN[C@H](C(=O)O)C1; Pro(4S-Me) = C[C@@H]1CN[C@H](C(=O)O)C1; NMeD = CN[C@@H](CC(=O)O)C(=O)O; NMeL = CN[C@@H](CC(C)C)C(=O)O; Morpholide = C1CN(*)CCO1; NMeA = CN[C@@H](C)C(=O)O; Ac5c = NC1(C(=O)O)CCCC1; Aze = O=C(O)[C@@H]1CCN1; Sar = CNCC(=O)O

Assays:
[1] = biological target: GDP-bound HRAS wild-type protein (Homo sapiens, UniProt P01112); test: Binding to HRAS by surface plasmon resonance (SPR), Single Cycle Kinetics; settings: SPR, GDP-bound HRAS wild-type protein vs GDP-bound KRAS wild-type protein
Sequence of GDP-bound HRAS wild-type protein (P01112 whole entry): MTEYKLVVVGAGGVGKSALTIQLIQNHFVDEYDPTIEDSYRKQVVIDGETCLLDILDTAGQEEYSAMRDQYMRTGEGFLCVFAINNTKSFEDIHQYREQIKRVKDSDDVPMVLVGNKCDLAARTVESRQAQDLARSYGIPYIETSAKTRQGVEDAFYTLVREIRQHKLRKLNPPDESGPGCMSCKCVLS

[2] = biological target: GDP-bound NRAS wild-type protein (Homo sapiens, UniProt P01111); test: Binding to NRAS by surface plasmon resonance (SPR), Single Cycle Kinetics; settings: SPR, GDP-bound NRAS wild-type protein vs GDP-bound KRAS wild-type protein
Sequence of GDP-bound NRAS wild-type protein (P01111 whole entry): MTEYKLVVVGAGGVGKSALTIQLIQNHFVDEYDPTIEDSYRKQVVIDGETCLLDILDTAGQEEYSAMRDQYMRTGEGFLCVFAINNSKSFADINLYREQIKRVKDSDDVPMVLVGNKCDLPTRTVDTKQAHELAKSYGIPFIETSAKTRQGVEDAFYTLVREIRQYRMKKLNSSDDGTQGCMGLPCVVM

[3] = biological target: GDP-bound KRAS wild-type protein (Homo sapiens, UniProt P01116); test: Binding to KRAS by surface plasmon resonance (SPR), Single Cycle Kinetics; settings: SPR Single Cycle Kinetics, GDP-bound KRAS wild-type protein, 1:1 binding model; read-out: KRAS KD
Sequence of GDP-bound KRAS wild-type protein (P01116 whole entry): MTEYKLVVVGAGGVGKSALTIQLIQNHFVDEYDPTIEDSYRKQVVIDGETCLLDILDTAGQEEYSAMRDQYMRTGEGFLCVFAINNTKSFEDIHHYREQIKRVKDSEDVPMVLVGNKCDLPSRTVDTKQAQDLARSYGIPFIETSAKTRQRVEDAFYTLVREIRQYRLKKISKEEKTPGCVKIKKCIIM

SMILES	HRAS/KRAS (ratio of KD value with respect to HRAS to KD value with respect to KRAS) [1]	NRAS/KRAS (ratio of KD value with respect to NRAS to KD value with respect to KRAS) [2]	Kd [3] [nM]
CCCN1C(=O)[C@@H]2CCN2C(=O)[C@H](C)N(C)C(=O)[C@H]([C@@H](C)CC)NC(=O)[C@H](CC(C)C)N(C)C(=O)C[C@@H](C(=O)N2CCOCC2)N(C)C(=O)[C@H](C2CCCC2)N(C)C(=O)C2(CCCC2)NC(=O)[C@@H]2CC(C)(C)CN2C(=O)[C@H](CCc2ccc(C(F)(F)F)c(Cl)c2)NC(=O)CN(C)C(=O)[C@@H]1Cc1ccc(C(F)(F)F)cc1 [PP0454] ([NMeL]I[NMeA][Aze][NPrPhe(4-CF3)][Sar][hPhe(3-Cl-4-CF3)][Pro(4,4-Me2)][Ac5c][NMeGly(cPent)][NMeD]-Morpholide; lactam N-11)	C (A compound having a KD ratio of 0.1 or more and less than 3 is denoted as C)	C (A compound having a KD ratio of 0.1 or more and less than 3 is denoted as C)	0.073
CCCN1C(=O)[C@@H]2CCN2C(=O)CN(C)C(=O)[C@H]([C@@H](C)CC)NC(=O)[C@H](CC(C)C)N(C)C(=O)C[C@@H](C(=O)N2CCOCC2)N(C)C(=O)[C@H](C2CCCC2)N(C)C(=O)C2(CCCC2)NC(=O)[C@@H]2CC(C)(C)CN2C(=O)[C@H](CCc2ccc(C(F)(F)F)c(Cl)c2)NC(=O)CN(C)C(=O)[C@@H]1Cc1ccc(C(F)(F)F)cc1 [PP0456] ([NMeL]I[Sar][Aze][NPrPhe(4-CF3)][Sar][hPhe(3-Cl-4-CF3)][Pro(4,4-Me2)][Ac5c][NMeGly(cPent)][NMeD]-Morpholide; lactam N-11)	C (A compound having a KD ratio of 0.1 or more and less than 3 is denoted as C)	C (A compound having a KD ratio of 0.1 or more and less than 3 is denoted as C)	0.07
CCCN1C(=O)[C@@H]2CCN2C(=O)CN(C)C(=O)[C@H]([C@@H](C)CC)NC(=O)[C@H](CC(C)C)N(C)C(=O)C[C@@H](C(=O)N2CCOCC2)N(C)C(=O)[C@H](C2CCCC2)N(C)C(=O)C2(CCCC2)NC(=O)[C@@H]2C[C@H](C)CN2C(=O)[C@H](CCc2ccc(C(F)(F)F)c(Cl)c2)NC(=O)CN(C)C(=O)[C@@H]1Cc1ccc(C(F)(F)F)cc1 [PP0457] ([NMeL]I[Sar][Aze][NPrPhe(4-CF3)][Sar][hPhe(3-Cl-4-CF3)][Pro(4S-Me)][Ac5c][NMeGly(cPent)][NMeD]-Morpholide; lactam N-11)	B (a compound having 3 or more and less than 10 is denoted as B)	C (A compound having a KD ratio of 0.1 or more and less than 3 is denoted as C)	0.083
CC[C@H](C)[C@@H]1NC(=O)[C@H](CC(C)C)N(C)C(=O)C[C@@H](C(=O)N2CCOCC2)N(C)C(=O)[C@H](C2CCCC2)N(C)C(=O)C2(CCCC2)NC(=O)[C@@H]2CCCN2C(=O)[C@H](CCc2ccc(C(F)(F)F)c(Cl)c2)NC(=O)CN(C)C(=O)[C@H](Cc2ccc(C)cc2)N2CC/C=C\C[C@@H](C2=O)N(C)C(=O)CN(C)C1=O [PP0461]	A (a compound having 10 or more and less than 20 is denoted as A)	A (a compound having 10 or more and less than 20 is denoted as A)	0.49
CC[C@H](C)[C@@H]1NC(=O)[C@H](CC(C)C)N(C)C(=O)C[C@@H](C(=O)N2CCOCC2)N(C)C(=O)[C@H](C2CCCC2)N(C)C(=O)C2(CCCC2)NC(=O)[C@@H]2CCCN2C(=O)[C@H](CCc2ccc(C(F)(F)F)c(Cl)c2)NC(=O)CN(C)C(=O)[C@H](Cc2ccc(C(F)(F)F)cc2)N2CC=CC[C@@H](C2=O)N(C)C(=O)CN(C)C1=O [PP0462]	C (A compound having a KD ratio of 0.1 or more and less than 3 is denoted as C)	C (A compound having a KD ratio of 0.1 or more and less than 3 is denoted as C)	0.32
CC[C@H](C)[C@@H]1NC(=O)[C@H](CC(C)C)N(C)C(=O)C[C@@H](C(=O)N2CCOCC2)N(C)C(=O)[C@H](C2CCCC2)N(C)C(=O)C2(CCCC2)NC(=O)[C@@H]2CCCN2C(=O)[C@H](CCc2ccc(C(F)(F)F)c(Cl)c2)NC(=O)CN(C)C(=O)[C@H](Cc2ccc(C(F)(F)F)cc2)N2CC/C=C\C[C@@H](C2=O)N(C)C(=O)CN(C)C1=O [PP0463]	A (a compound having 10 or more and less than 20 is denoted as A)	A (a compound having 10 or more and less than 20 is denoted as A)	0.54
CC[C@H](C)[C@@H]1NC(=O)[C@H](CC(C)C)N(C)C(=O)C[C@@H](C(=O)N2CCOCC2)N(C)C(=O)[C@H](C2CCCC2)N(C)C(=O)C2(CCC2)NC(=O)[C@@H]2CC(F)(F)CN2C(=O)[C@H](CCc2cc(F)c(C(F)(F)F)c(F)c2)NC(=O)CN(C)C(=O)[C@H](Cc2ccc(C(F)(F)F)cc2)N2CCCCC[C@@H](C2=O)N(C)C(=O)CN(C)C1=O [PP0464]	B (a compound having 3 or more and less than 10 is denoted as B)	B (a compound having 3 or more and less than 10 is denoted as B)	0.92
CC[C@H](C)[C@@H]1NC(=O)[C@H](CC(C)C)N(C)C(=O)C[C@@H](C(=O)N(C)C)N(C)C(=O)[C@H](C2CCCC2)N(C)C(=O)C2(CCCC2)NC(=O)[C@@H]2CC(F)(F)CN2C(=O)[C@H](CCc2cc(F)c(C(F)(F)F)c(F)c2)NC(=O)CN(C)C(=O)[C@H](Cc2ccc(C(F)(F)F)cc2)N2CCCCC[C@@H](C2=O)N(C)C(=O)CN(C)C1=O [PP0465]	B (a compound having 3 or more and less than 10 is denoted as B)	B (a compound having 3 or more and less than 10 is denoted as B)	0.51
CC[C@H](C)[C@@H]1NC(=O)[C@H](CC(C)C)N(C)C(=O)C[C@@H](C(=O)N(C)C)N(C)C(=O)[C@H](C2CCCC2)N(C)C(=O)C2(CCC2)NC(=O)[C@@H]2CC(F)(F)CN2C(=O)[C@H](CCc2cc(F)c(C(F)(F)F)c(F)c2)NC(=O)CN(C)C(=O)[C@H](Cc2ccc(C(F)(F)F)cc2)N2CCCCC[C@@H](C2=O)N(C)C(=O)CN(C)C1=O [PP0466]	B (a compound having 3 or more and less than 10 is denoted as B)	B (a compound having 3 or more and less than 10 is denoted as B)	0.2
CCO[C@@H]1C[C@H]2C(=O)NC3(CCC3)C(=O)N(C)[C@@H](C3CCCC3)C(=O)N(C)[C@H](C(=O)N3CCOCC3)CC(=O)N(C)[C@@H](CC(C)C)C(=O)N[C@@H]([C@@H](C)CC)C(=O)N(C)CC(=O)N(C)[C@H]3CCCCCN(C3=O)[C@@H](Cc3ccc(C(F)(F)F)cc3)C(=O)N(C)CC(=O)N[C@@H](CCc3cc(F)c(C(F)(F)F)c(F)c3)C(=O)N2C1 [PP0467]	B (a compound having 3 or more and less than 10 is denoted as B)	B (a compound having 3 or more and less than 10 is denoted as B)	0.59
CCO[C@@H]1C[C@H]2C(=O)NC3(CCCC3)C(=O)N(C)[C@@H](C3CCCC3)C(=O)N(C)[C@H](C(=O)N(C)C)CC(=O)N(C)[C@@H](CC(C)C)C(=O)N[C@@H]([C@@H](C)CC)C(=O)N(C)CC(=O)N(C)[C@H]3CCCCCN(C3=O)[C@@H](Cc3ccc(C(F)(F)F)cc3)C(=O)N(C)CC(=O)N[C@@H](CCc3cc(F)c(C(F)(F)F)c(F)c3)C(=O)N2C1 [PP0468]	B (a compound having 3 or more and less than 10 is denoted as B)	B (a compound having 3 or more and less than 10 is denoted as B)	0.8
CC[C@H](C)[C@@H]1NC(=O)[C@H](C)N(C)C(=O)C[C@@H](C(=O)N(C)C)N(C)C(=O)[C@H](C2CCCC2)N(C)C(=O)C2(CCC2)NC(=O)[C@@H]2CCCN2C(=O)[C@H](CCc2cc(F)c(C(F)(F)F)c(F)c2)NC(=O)CN(C)C(=O)[C@H](Cc2ccc(C(F)(F)F)cc2)N2CCCCC[C@@H](C2=O)N(C)C(=O)CN(C)C1=O [PP0470]	B (a compound having 3 or more and less than 10 is denoted as B)	B (a compound having 3 or more and less than 10 is denoted as B)	0.55
CC[C@H](C)[C@@H]1NC(=O)[C@H](C)N(C)C(=O)C[C@@H](C(=O)N2CCOCC2)N(C)C(=O)[C@H](C2CCCC2)N(C)C(=O)C2(CCC2)NC(=O)[C@@H]2CC(F)(F)CN2C(=O)[C@H](CCc2cc(F)c(C(F)(F)F)c(F)c2)NC(=O)CN(C)C(=O)[C@H](Cc2ccc(C(F)(F)F)cc2)N2CCCCC[C@@H](C2=O)N(C)C(=O)CN(C)C1=O [PP0471]	B (a compound having 3 or more and less than 10 is denoted as B)	B (a compound having 3 or more and less than 10 is denoted as B)	0.93
